This passage reports inhibition and melting point results from US7541463B2, “Sulfur-containing naphthalimide derivatives” (East China University of Science and Technology, priority 2003, dated 2009).

In series [1] the test system is human lung adenocarcinoma cell A-549. The experiment in a line: Growth inhibition of A-549 cells, SRB protein staining assay. The format is cell-based. The note with it: read-out: Growth inhibition effect to A-549 cell strain; for inhibition at 100 µM: A549, 10^−4 M; for inhibition at 10 µM: A549, 10^−5 M; for inhibition at 1 µM: A549, 10^−6 M; for inhibition at 0.1 µM: A549, 10^−7 M; for inhibition at 0.01 µM: A549, 10^−8 M. As to the method: (§1) The cell growth inhibition of mice leukemia cell P388 was evaluated by MTT (microculture tetrozolium) assay, while the cell growth inhibition of human lung adenocarcinoma cell A-549 was evaluated by SRB (Sulforhodamine B) protein staining assay.
The procedure of SRB assay was as follows: appropriate amount of cells in log phase were seeded in 96-well plates according to the growing rate (90 ul/well). After cultured for 24 h, cells were exposed to serial dilutions of drugs in triplicate (10 ul/well). In addition, control wells of normal saline in corresponding concentrations and zeroing wells without cell were set. The cells were incubated in 5% CO2 humidified incubator at 37° C. After 72 h, the medium was removed and cells were fixed with cold 10% trichloric acid (TCA) at 4° C. for 1 h. The plates were washed with distilled water 5 times, and stained in room temperature with 4 mg/ml SRB (Sigma, diluted with 1% glacial acetic acid, 100 ul/well) for 15 minutes after air drying. SRB was then washed with 1% acetic acid 5 times. Plates were dried, followed by adding 150 ul/well Tris solution. Absorbance was measured at […] using a multiwell spectrophotometer. The inhibition effect of the compounds in test (percentage of growth inhibition) was calculated for each well: % inhibition=(A540control cells−A540treated cells)/A540control cells×100%.
(§2) The cell lines used were mice leukemia cell P388, human leukemia cell MOLT-4, human lung adenocarcinoma cell A-549, human gastric adenocarcinoma SGC-7901, human hepatocellular carcinoma BEL-7402 and human embryonal fibroblast WI-38 (commerially available from ATCC).
(§3) The exposure time to compounds was 48 h-72 h.
Background: In SRB staining, fixed cells bind dye roughly in proportion to their protein.

Series [2] deals with mice leukemia cell P388. The experiment in a line: Growth inhibition of P388 cells, MTT assay. The note with it: Mus musculus, read-out: Growth inhibition effect to P388 cell strain; for inhibition at 100 µM: 10^−4 M; for inhibition at 10 µM: 10^−5 M; for inhibition at 1 µM: 10^−6 M; for inhibition at 0.1 µM: 10^−7 M; for inhibition at 0.01 µM: 10^−8 M. In kind it is cell-based. As to the method: as §1
The procedure of MTT assay was as follows: appropriate amount of cells in log phase were seeded in 96-well plates (6000 cells/well, 15000 cells/well, 90ul/well) according to the growing rate. After cultured for 24 h, cells were exposed to serial dilutions of drugs in triplicate (10 ul/well). In addition, wells without cell, and wells without cell but with serial dilutions of drugs in case of using a colored-drug were set for zeroing. Then, the cells were cultured in 5% CO2 humidified incubator at 37° C. for 48 h. After treatment of drugs for 48 h, 20ul MTT (Sigma) which was diluted by normal saline to the concentration of 5 mg/ml was added to each well, 50ul/well 10%SDS-5% isobutanol-0.01% mol/LHCl was added after 4 h. After cultured overnight, absorbance was measured at 570 nm using a multiwell spectrophotometer. The inhibition effect of the compounds in test (percentage of growth inhibition) was calculated for each well: % inhibition=(OD570control cells−OD570treated cells)/OD570control cells×100%.
as §2, §3

The inhibition is how much of the control response was suppressed. As a reminder, the melting point is the temperature of the solid-liquid transition. Turning to `O=c1c2ccc3sc4ccccc4c4ccc(c(=O)n1CCN1CCNCC1)c2c34` [compound 3, N-(2′-piperazinylethyl)benzo[k, l]thioxanthene-3,4-dicarboximide], the melting point lay within 286 to 287 °C. Besides, in series [1], the inhibition at 100 µM came to 78.6%, the inhibition at 10 µM was 92.4%, the inhibition at 1 µM is 69.8% and the inhibition at 0.1 µM turned out to be 4.7%. Also, the inhibition at 0.01 µM in series [1] was determined as 0%. In addition, in series [2], the inhibition at 100 µM was found to be 100%, the inhibition at 10 µM was found to be 100%, the inhibition at 1 µM was 22.2% and the inhibition at 0.1 µM amounted to 0%. Besides, the inhibition at 0.01 µM in series [2] turned out to be 0%.
As to `CN(C)CCN1C(=O)c2cccc3c2c(cc2nc(-c4ccccc4)sc23)C1=O` [compound 5, N-(N′,N′-dimethylaminoethyl)-4H, 6H-9-phenyl-benzo[de]thiazol[5,4-g]isoquinoline-4,6-diketone], the melting point is 220 to 221 °C. In addition, in series [1], the inhibition at 100 µM was 94.8%, the inhibition at 10 µM amounted to 91.5%, the inhibition at 1 µM stood at 73% and the inhibition at 0.1 µM is 69.7%. Further, the inhibition at 0.01 µM in series [1] was determined as 17.8%. Also, in series [2], the inhibition at 100 µM was determined as 96.6%, the inhibition at 10 µM amounted to 87.7%, the inhibition at 1 µM came to 48.2% and the inhibition at 0.1 µM came out at 21.1%. The inhibition at 0.01 µM in series [2] was 8.1%.
`Cc1ccc(-c2nc3cc4c5c(cccc5c3s2)C(=O)N(CCN(C)C)C4=O)cc1` [compound 6, N-(N′,N′-dimethylaminoethyl)-4H, 6H-9-p-methylphenyl-benzo[d, e]thiazol[5,4-g]isoquinoline4,6-diketone]: the melting point was 202 to 203 °C. Besides, in series [1], the inhibition at 100 µM was determined as 95.8%, the inhibition at 10 µM was found to be 92.3%, the inhibition at 1 µM worked out at 52.7% and the inhibition at 0.1 µM was 31.5%. Moreover, in series [1], the inhibition at 0.01 µM was found to be 7.1%. Further, in series [2], the inhibition at 100 µM was determined as 96%, the inhibition at 10 µM was determined as 74.7%, the inhibition at 1 µM amounted to 47.7% and the inhibition at 0.1 µM is 29.3%. Also, the inhibition at 0.01 µM in series [2] was 13%.
`CN(C)CCN1C(=O)c2cccc3c2c(cc2nc(-c4ccccc4O)sc23)C1=O` [compound 8, N-(N′,N′-dimethylaminoethyl)-4H, 6H-9-o-hydroxyphenyl-benzo[de]thiazol[5,4-g]isoquinoline-4,6-diketone] had a melting point of 240 to 241 °C. In series [1], the inhibition at 100 µM stood at 95.2%, the inhibition at 10 µM came to 59.6%, the inhibition at 1 µM was determined as 18.6% and the inhibition at 0.1 µM worked out at 1%. The inhibition at 0.01 µM in series [1] amounted to 0.2%. Besides, in series [2], the inhibition at 100 µM came to 94.8%, the inhibition at 10 µM turned out to be 45.9%, the inhibition at 1 µM was determined as 24.9% and the inhibition at 0.1 µM was 10%. In series [2], the inhibition at 0.01 µM is 8.8%.
Compound `CN(C)CCN1C(=O)c2cccc3c2c(cc2nc(-c4ccccc4Cl)sc23)C1=O` [compound 10, N-(N′,N′-dimethylaminoethyl)-4H, 6H-9-o-chlorophenyl-benzo[de]thiazol[5,4-g]isoquinoline-4,6-diketone] yielded a melting point of 235 to 237 °C. In series [1], the inhibition at 100 µM turned out to be 91.4%, the inhibition at 10 µM came to 93.4%, the inhibition at 1 µM was found to be 94.5% and the inhibition at 0.1 µM came out at 35.7%. In addition, in series [1], the inhibition at 0.01 µM is 12.5%. Besides, in series [2], the inhibition at 100 µM came to 96.1%, the inhibition at 10 µM worked out at 89%, the inhibition at 1 µM was found to be 64.6% and the inhibition at 0.1 µM was determined as 40.5%. The inhibition at 0.01 µM in series [2] came out at 7.3%.
`CCCCN1C(=O)c2cccc3c2c(cc2nnsc23)C1=O` [compound 12, 5-butyl-4H, 6H-benzo[de]-1,2,3,-thiadiazol[5,4-g]isoquinoline4,6-diketone] returned a melting point of 177 to 179 °C. Further, in series [1], the inhibition at 100 µM stood at 69.4%, the inhibition at 10 µM was 75.2%, the inhibition at 1 µM was found to be 0% and the inhibition at 0.1 µM came out at 2.3%. Moreover, the inhibition at 0.01 µM in series [1] was found to be 0%. In series [2], the inhibition at 100 µM was 54.3%, the inhibition at 10 µM is 23.2%, the inhibition at 1 µM was found to be 17.1% and the inhibition at 0.1 µM stood at 12.3%. Moreover, the inhibition at 0.01 µM in series [2] was 15.6%.
For `CN(C)CCCN1C(=O)c2cccc3c2c(cc2nnsc23)C1=O` [compound 13, 5-(N′,N′-dimethylaminopropyl)-4H, 6H-benzo[de]-1,2,3,-thiadiazol[5,4-g]isoquinoline-4,6-diketone], the melting point was 101 to 102 °C. Besides, in series [1], the inhibition at 100 µM is 95.9%, the inhibition at 10 µM was 94.4%, the inhibition at 1 µM was 90.6% and the inhibition at 0.1 µM turned out to be 0%. Also, the inhibition at 0.01 µM in series [1] is 0%. In addition, in series [2], the inhibition at 100 µM turned out to be 99.5%, the inhibition at 10 µM is 89.2%, the inhibition at 1 µM was 19.8% and the inhibition at 0.1 µM worked out at 11%. In addition, in series [2], the inhibition at 0.01 µM is 14.5%.
The compound `O=C1c2cccc3c2c(cc2nnsc23)C(=O)N1CCN1CCNCC1` [compound 14, 5-(2′-piperazinylethyl)-4H, 6H-benzo[de]-1,2,3,-thiadiazol[5,4-g]isoquinoline-4,6-diketone] displayed a melting point of 145 to 146 °C. Moreover, in series [1], the inhibition at 100 µM was 95.9%, the inhibition at 10 µM came to 96.1%, the inhibition at 1 µM was determined as 87.3% and the inhibition at 0.1 µM turned out to be 60.2%. Further, in series [1], the inhibition at 0.01 µM was 4.4%. Further, in series [2], the inhibition at 100 µM was determined as 98.8%, the inhibition at 10 µM was found to be 90.8%, the inhibition at 1 µM worked out at 16.8% and the inhibition at 0.1 µM turned out to be 13.7%. Moreover, the inhibition at 0.01 µM in series [2] was 18.4%.
`CCCCN1C(=O)c2cccc3c2c(cc2c4ccccc4sc32)C1=O` [compound 15, N-butylbenzo[b] thieno[2,1-c]naphthalimide] registered a melting point of 170 to 172 °C. In addition, in series [1], the inhibition at 100 µM was found to be 94%, the inhibition at 10 µM worked out at 45.6%, the inhibition at 1 µM amounted to 0% and the inhibition at 0.1 µM is 0%. For the same compound, in series [1], the inhibition at 0.01 µM is 0%. For the same compound, in series [2], the inhibition at 100 µM amounted to 51.8%, the inhibition at 10 µM was 26%, the inhibition at 1 µM came out at 3.2% and the inhibition at 0.1 µM stood at 3.2%. Moreover, the inhibition at 0.01 µM in series [2] worked out at 5.8%.
For `O=C1c2cccc3c2c(cc2c4ccccc4sc32)C(=O)N1CCN1CCNCC1` [compound 17, N-(2′-piperazinylethyl)benzo[b]thieno[2,1-c] naphthalimide], the melting point lay within 226 to 228 °C. Moreover, in series [1], the inhibition at 100 µM was 91.1%, the inhibition at 10 µM was 95.4%, the inhibition at 1 µM was 46.8% and the inhibition at 0.1 µM amounted to 0%. In addition, the inhibition at 0.01 µM in series [1] stood at 1.7%. In series [2], the inhibition at 100 µM worked out at 100%, the inhibition at 10 µM was 100%, the inhibition at 1 µM amounted to 23.9% and the inhibition at 0.1 µM amounted to 4.5%. Moreover, the inhibition at 0.01 µM in series [2] worked out at 2%.
With `CN(C)CCCN1C(=O)c2cccc3c2c(cc2c4ccccc4sc32)C1=O` [compound 18, N-(N′,N′-dimethylaminopropyl)benzo[b]thieno[2,1-c] naphthalimide], the melting point was 168 to 170 °C. In series [1], the inhibition at 100 µM turned out to be 95.3%, the inhibition at 10 µM was 96.9%, the inhibition at 1 µM is 81.1% and the inhibition at 0.1 µM came out at 47.2%. In addition, the inhibition at 0.01 µM in series [1] is 1.7%. In addition, in series [2], the inhibition at 100 µM amounted to 100%, the inhibition at 10 µM amounted to 100%, the inhibition at 1 µM worked out at 29.8% and the inhibition at 0.1 µM turned out to be 17.1%. The inhibition at 0.01 µM in series [2] is 5.5%.
